≈ marks a conversion by molar mass, not a printed value. Values belong to the molecule of their own block, whether it stands above or below them.
Experiments:
Assay type in all cases: functional
Staphylococcus aureus [1] = experiment: Antibacterial activity against Staphylococcus aureus clinical isolate assessed as bacterial growth inhibition by disk diffusion method
Escherichia coli [2] = experiment: Antibacterial activity against Escherichia coli clinical isolate assessed as bacterial growth inhibition by disk diffusion method
Klebsiella pneumoniae [3] = experiment: Antibacterial activity against Klebsiella pneumoniae clinical isolate assessed as bacterial growth inhibition by disk diffusion method
Pseudomonas putida = experiment: Antibacterial activity against Pseudomonas putida clinical isolate assessed as bacterial growth inhibition by disk diffusion method
Serratia marcescens = experiment: Antibacterial activity against Serratia marcescens clinical isolate assessed as bacterial growth inhibition by disk diffusion method
Staphylococcus aureus [4] = experiment: Antibacterial activity against Staphylococcus aureus ATCC 43300 assessed as bacterial growth inhibition incubated for 24 hrs by broth microdilution method
Staphylococcus aureus [5] = experiment: Antibacterial activity against Staphylococcus aureus ATCC 29213 assessed as bacterial growth inhibition incubated for 24 hrs by broth microdilution method
Staphylococcus aureus [6] = experiment: Antibacterial activity against Staphylococcus aureus clinical isolate AD3 assessed as bacterial growth inhibition incubated for 24 hrs by broth microdilution method
Staphylococcus aureus [7] = experiment: Antibacterial activity against Staphylococcus aureus clinical isolate 144 assessed as bacterial growth inhibition incubated for 24 hrs by broth microdilution method
Staphylococcus aureus [8] = experiment: Antibacterial activity against Staphylococcus aureus clinical isolate assessed as bacterial growth inhibition incubated for 24 hrs by disk diffusion method
Escherichia coli [9] = experiment: Antibacterial activity against Escherichia coli clinical isolate assessed as bacterial growth inhibition incubated for 24 hrs by disk diffusion method
Bacillus subtilis [10] = experiment: Antibacterial activity against Bacillus subtilis assessed as bacterial growth inhibition by broth microdilution method
Pseudomonas aeruginosa = experiment: Antibacterial activity against Pseudomonas aeruginosa assessed as bacterial growth inhibition by broth microdilution method
Staphylococcus aureus [11] = experiment: Antibacterial activity against erythromycin-susceptible Staphylococcus aureus ATCC 25923 assessed as bacterial growth inhibition by standard dilution assay
Staphylococcus aureus [12] = experiment: Antibacterial activity against methicillin-resistant Staphylococcus aureus ATCC 43300 assessed as bacterial growth inhibition by standard dilution assay
Staphylococcus aureus [13] = experiment: Antibacterial activity against erythromycin-resistant Staphylococcus aureus clinical isolate assessed as bacterial growth inhibition by standard dilution assay
Staphylococcus aureus [14] = experiment: Antibacterial activity against penicillin-resistant Staphylococcus aureus ATCC 31007 assessed as bacterial growth inhibition by standard dilution assay
Klebsiella pneumoniae [15] = experiment: Antibacterial activity against erythromycin-resistant Klebsiella pneumoniae ATCC 700603 assessed as bacterial growth inhibition by standard dilution assay
Staphylococcus aureus [16] = experiment: Potency index, ratio of Azithromycin MIC to test compound MIC for antibacterial activity against erythromycin-susceptible Staphylococcus aureus ATCC 25923 assessed as bacterial growth inhibition by standard dilution assay
Staphylococcus aureus [17] = experiment: Potency index, ratio of Clarithromycin MIC to test compound MIC for antibacterial activity against erythromycin-susceptible Staphylococcus aureus ATCC 25923 assessed as bacterial growth inhibition by standard dilution assay
Staphylococcus aureus [18] = experiment: Antibacterial activity against Staphylococcus aureus assessed as bacterial growth inhibition
Streptococcus pyogenes = experiment: Antibacterial activity against erythromycin-resistant Streptococcus pyogenes clinical isolate 2 assessed as bacterial growth inhibition incubated for 24 hrs by CLSI based broth microdilution method
Streptococcus pneumoniae [19] = experiment: Antibacterial activity against erythromycin-resistant Streptococcus pneumoniae AB11 expressing ermB/mefA assessed as bacterial growth inhibition incubated for 24 hrs by CLSI based broth microdilution method
Streptococcus pneumoniae [20] = experiment: Antibacterial activity against erythromycin-resistant Streptococcus pneumoniae B1 expressing ermB assessed as bacterial growth inhibition incubated for 24 hrs by CLSI based broth microdilution method
Staphylococcus aureus [21] = experiment: Antibacterial activity against methicillin-resistant Staphylococcus aureus ATCC 43300 assessed as bacterial growth inhibition incubated for 24 hrs by CLSI based broth microdilution method
Staphylococcus aureus [22] = experiment: Antibacterial activity against penicillin-resistant Staphylococcus aureus ATCC 31007 assessed as bacterial growth inhibition incubated for 24 hrs by CLSI based broth microdilution method
Staphylococcus aureus [23] = experiment: Antibacterial activity against Staphylococcus aureus 209p ATCC 6538P assessed as bacterial growth inhibition incubated for 1 to 2 days by serial dilution method; settings: time 1-2 day
Staphylococcus aureus [24] = experiment: Antibacterial activity against Staphylococcus aureus assessed as bacterial growth inhibition by broth dilution method
Bacillus subtilis [25] = experiment: Antibacterial activity against Bacillus subtilis assessed as bacterial growth inhibition by serial dilution method
[26] = tested on: Staphylococcus epidermidis; experiment: Antibacterial activity against Staphylococcus epidermidis assessed as bacterial growth inhibition by serial dilution method
Staphylococcus aureus [27] = experiment: Antibacterial activity against multidrug-resistant Staphylococcus aureus clinical isolate assessed as bacterial growth inhibition by broth dilution method
Staphylococcus aureus [28] = experiment: Antibacterial activity against methicillin-resistant Staphylococcus aureus ATCC 43300 infected in neutropenic mouse model of thigh infection assessed as reduction in bacterial load at 20 mg/kg, iv measured after 24 hrs by colony counting method

MIC (Staphylococcus aureus [1]): 12.3 µg/mL (≈ 28.1 µM)
MIC (Escherichia coli [2]): 12.3 µg/mL (≈ 28.1 µM)
MIC (Klebsiella pneumoniae [3]): 12.3 µg/mL (≈ 28.1 µM)
MIC (Pseudomonas putida): 12.3 µg/mL (≈ 28.1 µM)
MIC (Serratia marcescens): 12.3 µg/mL (≈ 28.1 µM)
SMILES: Cc1ccc(NC(=O)Cn2cc(Cn3c4ccccc4c(=O)c4cc(C)ccc43)nn2)cc1

MIC (Staphylococcus aureus [4]): 0.5 µg/mL (≈ 0.771 µM)
MIC (Staphylococcus aureus [5]): 0.5 µg/mL (≈ 0.771 µM)
MIC (Staphylococcus aureus [6]): 0.5 µg/mL (≈ 0.771 µM)
MIC (Staphylococcus aureus [7]): 0.5 µg/mL (≈ 0.771 µM)
SMILES: C=C[C@]1(C)C[C@@H](OC(=O)Cn2cc(CN3CCN(c4ccc([N+](=O)[O-])cc4)CC3)nn2)[C@@]2(C)[C@@H]3C(=O)CC[C@@]3(CC[C@@H]2C)[C@@H](C)[C@@H]1O

MIC (Staphylococcus aureus [8]): 10.1 µg/mL (≈ 26.5 µM)
MIC (Escherichia coli [9]): 10.1 µg/mL (≈ 26.5 µM)
SMILES: Cc1ccc2c(c1)c(=O)c1ccccc1n2Cc1cn(-c2ccccc2C)nn1

MIC (Bacillus subtilis [10]): 1.25 µg/mL (≈ 3.52 µM)
MIC (Pseudomonas aeruginosa): 1.25 µg/mL (≈ 3.52 µM)
SMILES: C=CCCCCC1CC(=O)N1Cc1cn(-c2cccc([N+](=O)[O-])c2)nn1 (centres undefined)

SMILES: CCCCCc1ccc(-c2cn(CC(=O)NNC(=O)O[C@H]3C[C@H](C)[C@@H](O[C@@H]4[C@H](C)[C@@H](O[C@H]5O[C@@H](C)C[C@@H](N(C)C)[C@@H]5O)[C@@](C)(O)C[C@@H](C)CN(C)[C@H](C)[C@H]5OC(=O)O[C@]5(C)[C@H](CC)OC(=O)[C@@H]4C)C[C@@]3(C)OC)nn2)cc1
MIC (Staphylococcus aureus [11]): 2 µg/mL (≈ 1.84 µM)
MIC (Staphylococcus aureus [12]): 2 µg/mL (≈ 1.84 µM)
MIC (Staphylococcus aureus [13]): ≥ 128 µg/mL
MIC (Staphylococcus aureus [14]): 2 µg/mL (≈ 1.84 µM)
MIC (Klebsiella pneumoniae [15]): ≥ 128 µg/mL
Ratio (Staphylococcus aureus [16]): >32
Ratio (Staphylococcus aureus [17]): >32

MIC (Staphylococcus aureus [18]): 4 µg/mL
SMILES: COc1cc2c(cc1OC)C[N+](Cc1cn(-c3ccc(C(C)(C)C)cc3)nn1)(Cc1cn(-c3ccc(C(C)(C)C)cc3)nn1)CC2.[Br-]

MIC (Staphylococcus aureus [4]): 0.5 µg/mL (≈ 0.771 µM)
MIC (Staphylococcus aureus [5]): 0.5 µg/mL (≈ 0.771 µM)
MIC (Staphylococcus aureus [6]): 0.5 µg/mL (≈ 0.771 µM)
MIC (Staphylococcus aureus [7]): 0.5 µg/mL (≈ 0.771 µM)
SMILES: C=C[C@]1(C)C[C@@H](OC(=O)Cn2cc(CN3CCN(c4ccccc4[N+](=O)[O-])CC3)nn2)[C@@]2(C)[C@@H]3C(=O)CC[C@@]3(CC[C@@H]2C)[C@@H](C)[C@@H]1O

MIC (Staphylococcus aureus [1]): 12.3 µg/mL (≈ 28.1 µM)
MIC (Escherichia coli [2]): 12.3 µg/mL (≈ 28.1 µM)
MIC (Klebsiella pneumoniae [3]): 12.3 µg/mL (≈ 28.1 µM)
MIC (Pseudomonas putida): 12.3 µg/mL (≈ 28.1 µM)
MIC (Serratia marcescens): 12.3 µg/mL (≈ 28.1 µM)
SMILES: Cc1ccc2c(c1)c(=O)c1ccccc1n2Cc1cn(CC(=O)Nc2ccccc2C)nn1

MIC (Staphylococcus aureus [8]): 10.1 µg/mL (≈ 27.6 µM)
MIC (Escherichia coli [9]): 10.1 µg/mL (≈ 27.6 µM)
SMILES: Cc1ccccc1-n1cc(Cn2c3ccccc3c(=O)c3ccccc32)nn1

SMILES: CC[C@H]1OC(=O)[C@H](C)[C@@H](O[C@H]2C[C@@](C)(OC)[C@@H](O)[C@H](C)O2)[C@H](C)[C@@H](O[C@@H]2O[C@H](C)C[C@H](N(C)C)[C@H]2O)[C@](C)(O)C[C@@H](C)CN(C)[C@H](C)[C@@H](O)[C@]1(C)O [AZITHROMYCIN]
MIC (Streptococcus pyogenes): > 256 µg/mL
MIC (Streptococcus pneumoniae [19]): > 256 µg/mL
MIC (Streptococcus pneumoniae [20]): > 256 µg/mL
MIC (Staphylococcus aureus [21]): > 256 µg/mL
MIC (Staphylococcus aureus [22]): > 256 µg/mL
MIC (Staphylococcus aureus [11]): > 128 µg/mL
MIC (Staphylococcus aureus [12]): > 128 µg/mL
MIC (Staphylococcus aureus [14]): > 128 µg/mL

MIC (Staphylococcus aureus [23]): 0.97 µg/mL (≈ 1.75 µM)
SMILES: CO/N=C(\C(=O)N[C@@H]1C(=O)N2C(C(=O)O)=C(CSc3nc(=O)c(O)nn3C)CS[C@H]12)c1csc(N)n1 [CEFTRIAXONE]

SMILES: CC[C@H]1OC(=O)[C@H](C)[C@@H](O[C@H]2C[C@@](C)(OC)[C@@H](O)[C@H](C)O2)[C@H](C)[C@@H](O[C@@H]2O[C@H](C)C[C@H](N(C)C)[C@H]2O)[C@](C)(OC)C[C@@H](C)C(=O)[C@H](C)[C@@H](O)[C@]1(C)O [CLARITHROMYCIN]
MIC (Staphylococcus aureus [11]): > 128 µg/mL
MIC (Staphylococcus aureus [12]): > 128 µg/mL
MIC (Staphylococcus aureus [14]): > 128 µg/mL

SMILES: CCn1cc(C(=O)O)c(=O)c2cc(F)c(N3CCNCC3)cc21 [NORFLOXACIN]
MIC (Staphylococcus aureus [24]): 7.5 µg/mL (≈ 23.5 µM)
MIC (Bacillus subtilis [25]): 3.12 µg/mL (≈ 9.77 µM)
MIC [26]: 3.12 µg/mL (≈ 9.77 µM)
MIC (Staphylococcus aureus [27]): 7.5 µg/mL (≈ 23.5 µM)

SMILES: C=C[C@]1(C)C[C@@H](OC(=O)CSCCN(CC)CC)[C@]2(C)[C@H](C)CC[C@]3(CCC(=O)[C@H]32)[C@@H](C)[C@@H]1O [TIAMULIN]
Activity (Staphylococcus aureus [28]): -0.57 log10CFU/ml

From ChEMBL document CHEMBL5344406, “1,2,3-Triazole-containing hybrids with potential antibacterial activity against ESKAPE pathogens” (2022)
